# Patent publication US20190262453A1, “DESIGN AND COMPOSITION OF CELL-STABILIZED PHARMACEUTICAL FORMULATIONS” (THE REGENTS OF THE UNIVERSITY OF MICHIGAN, priority 2016, published 2019)
# Like-named read-outs stand apart in the source and are kept apart here.
# Experiments:
# [1] = tested on: peritoneal macrophages; assay: Peritoneal lavage: cell counts and CLDI-containing cells; assay type: in vivo, Mice; settings: PBS-CFZ fed group, peritoneal cavity
# Procedure: In order to deplete tissue macrophages, mice were treated with liposomes containing either 7 mg/mL clodronate or phosphate-buffered saline (PBS) (FormuMax Scientific Inc., Sunnyvale, Calif.) for up to six weeks. Liposomes were injected IP to eliminate macrophages of the liver, spleen, and peritoneal cavity. Mice were initially treated with 200 μL of liposomes, followed by 100 μL injections twice per week to ensure continual depletion of macrophages. Mice were fed CFZ or a control diet continuously for a four week period. Following two weeks of feeding, liposome treatment began for two weeks. After completing four weeks of feeding and two weeks of liposome treatment, the mice were sacrificed and tissues were collected. Following euthanasia, a small incision was made in the lower abdomen. […] The peritoneal lavage was centrifuged for 10 min at 400×g, 4° C,and then resuspended in DMEM media (Life Technologies). The cells were then plated onto 4 or 8 chamber coverglass (#1.5, Lab-Tek II, Nunc, Rochester, N.Y.) for imaging. The cells were allowed to attach overnight and then washed with media.
# [2] = tested on: RAW264.7 cells; assay: Cell viability (XTT assay); assay type: cell-based
# Procedure: Cell Viability. Viability of RAW264.7 cells were performed using Cell Proliferation Kit II (XTT) (Roche Applied Science, Mannheim, Germany, Cat. No. 11465015001) using the manufacturer's instructions. […] Post 24 hours exposure to CFZ, the cells were incubated with the yellow XTT solution (final concentration 0.3 mg/ml) for 4 h. […] An increase in number of living cells directly correlates to the amount of orange formazan formed, as monitored by the solution absorbance at 500 nm (Abs500). The following formula was used to determine viability of drug and inhibitor treated cells using untreated cells (blank) as a control—Cell Viability=(Abs500, treated—Abs700,treated)/(Abs500, blank—Abs700,blank).
# [3] = cited from earlier work
# [4] = Mouse body weight and temperature during macrophage depletion and CFZ feeding; assay type: in vivo; settings: mice, final measurement; four weeks diet, two weeks liposomes
# Procedure: Mice (4 week old, male C57B16) were purchased from the Jackson Laboratory (Bar Harbor, Me.) and acclimatized for 1 week in a specific-pathogen-free animal facility. Clofazimine (CFZ) (C8895; Sigma, St. Louis, Mo.) was dissolved in sesame oil (Shirakiku, Japan) to achieve a concentration of 3 mg/ml, which was mixed with Powdered Lab Diet 5001 (PMI International, Inc., St. Louis, Mo.) to produce a 0.03% drug to powdered feed mix, and orally administered ad libitum for 4 weeks. A corresponding amount of sesame oil was mixed with chow for vehicle treatment (control). Mice were euthanized via carbon dioxide asphyxiation and exsanguination. Animal care was provided by the University of Michigan's Unit for Laboratory Animal Medicine (ULAM).
# In order to deplete tissue macrophages, mice were treated with liposomes containing either 7 mg/mL clodronate or phosphate-buffered saline (PBS) (FormuMax Scientific Inc., Sunnyvale, Calif.) for up to six weeks. Liposomes were injected IP to eliminate macrophages of the liver, spleen, and peritoneal cavity. Mice were initially treated with 200 μL of liposomes, followed by 100 μL injections twice per week to ensure continual depletion of macrophages. […]
# During the course of the experiment, the body weight and temperature of the mice were measured daily to track the impact of the loss of drug-sequestering cells on the general health of the mouse. […]
# [5] = tested on: RAW264.7 cells
# Procedure: Drug Uptake. Measurement of CFZ uptake in RAW264.7 cells was performed using a modified absorbance spectroscopy method using 9 M H2SO4 (pH<<0.1) to digest the entire cell population and extract CFZ from the cells. Cells at a very high seeding density of 50,000 cells/well, grown in a 96 well tissue culture plate in 280 μl/well of DMEM +10% FBS +1% P/S (growth media), were pre-incubated with varying concentrations of BafA1 (0-4 nM) and NPPB (0-200 μM) for 4 hours before adding CFZ dissolved in DMSO such that final concentrations of CFZ were in the range of 0-8 μM. Post 4 and 24 hours exposure to CFZ, growth media was aspirated out and the cells were washed with PBS twice before adding 100 μl/well of 9 M H2SO4 and incubated at room temperature for 30 minutes before spectrophotometric quantification using a Synergy 2 plate reader (BioTek, Winooski, Vt.) at 540 nm (Abs540) and 750 nm (Abs750) (for background). Standards were prepared on the same plate by adding 100 μl/well pre-determined standards of CFZ. Total uptake was reported as total picomoles of intracellular drug as measured and calculated using the standard curve.
# Cell Viability Measurement: Comparing Wet Lab Experimental Study with Simulation Study. In order to compare wet lab experimental cell viability determination with that of model simulation, the rate at which drug accumulation occurred in the experimental study was calculated. […] Then, cell viability was calculated using the following equation: […]
# In vitro analysis (CFZ accumulation). […] Furthermore, the following comparisons are reported as a percentage (%) of CFZ accumulation measured in uninhibited cells under the various tested CFZ concentrations and 8 μM CFZ concentration, in the wet lab experimental and simulation studies, respectively.
smiles,measurement,setting,value
"CC(C)N=c1cc2n(-c3ccc(Cl)cc3)c3ccccc3nc-2cc1Nc1ccc(Cl)cc1 [CFZ, 3-(p-chloroanilino)-10-(p-chlorophenyl)-2, 10-dihydro-2-isopropyliminophenazine]",macrophages containing at least one intracellular CLDI,[1],approximately 50%
same,cell viability,"[2]; BafA1=4 nM and CFZ=10 μM, n=6",76±13%
same,cell viability,"[2]; BafA1=6 nM, all concentrations of CFZ",48-85%
same,cell viability,"[2]; BafA1=8 nM, all concentrations of CFZ",33-77%
same,cell viability,[2]; exposed to NPPB (all tested concentrations) prior to varying concentrations of CFZ,> 92%
same,effect on cell viability,"[2]; incubation of the substance alone, RAW264.7, XTT",no significant effect
same,cell viability,[2]; up to 4 nM BafA1 prior to up to 8 μM CFZ,> 91%
same,pharmacologically-relevant concentrations measured in serum,[3],1 to 20 μM
same,Average Body Temperature (n = 3-4),[4],34.3 ± 0.3 °C
same,Average Body Weight (n = 3-4),[4],25.7 ± 0.8 g
same,CFZ accumulation relative to uninhibited cells,"[5]; 2 nM BafA1, initial CFZ=4 μM, 4 hours",80±13%
same,CFZ accumulation relative to uninhibited cells,"[5]; 2 nM BafA1, initial CFZ=4 μM, 24 hours",67±12%
same,CFZ accumulation relative to uninhibited cells,"[5]; 2 nM BafA1, initial CFZ=6 μM, 4 hours",75±11%
same,CFZ accumulation relative to uninhibited cells,"[5]; 2 nM BafA1, initial CFZ=6 μM, 24 hours",71±19%
same,CFZ accumulation relative to uninhibited cells,"[5]; 2 nM BafA1, initial CFZ=8 μM, 4 hours",63±9%
same,CFZ accumulation relative to uninhibited cells,"[5]; 2 nM BafA1, initial CFZ=8 μM, 24 hours",67±12%
same,CFZ accumulation relative to uninhibited cells,"[5]; BafA1=4 nM, initial CFZ=4 μM, 4 hours",29±4%
same,CFZ accumulation relative to uninhibited cells,"[5]; BafA1=4 nM, initial CFZ=4 μM, 24 hours",42±6%
same,CFZ accumulation relative to uninhibited cells,"[5]; BafA1=4 nM, initial CFZ=6 μM, 4 hours",47±9%
same,CFZ accumulation relative to uninhibited cells,"[5]; BafA1=4 nM, initial CFZ=6 μM, 24 hours",38±9%
same,CFZ accumulation relative to uninhibited cells,"[5]; BafA1=4 nM, initial CFZ=8 μM, 4 hours",43±8%
same,CFZ accumulation relative to uninhibited cells,"[5]; BafA1=4 nM, initial CFZ=8 μM, 24 hours",26±4%
same,CFZ accumulation relative to uninhibited cells,"[5]; NPPB=50 μM, CFZ=4 μM, 24 hours",73±10%
same,CFZ accumulation relative to uninhibited cells,"[5]; NPPB=50 μM, CFZ=6 μM, 24 hours",73±17%
same,CFZ accumulation relative to uninhibited cells,"[5]; NPPB=50 μM, CFZ=8 μM, 24 hours",72±10%
same,CFZ accumulation relative to uninhibited cells,"[5]; NPPB=100 μM, CFZ=4 μM, 24 hours",46±5%
same,CFZ accumulation relative to uninhibited cells,"[5]; NPPB=100 μM, CFZ=6 μM, 24 hours",41±12%
same,CFZ accumulation relative to uninhibited cells,"[5]; NPPB=100 μM, CFZ=8 μM, 24 hours",41±7%
same,CFZ accumulation relative to uninhibited cells,"[5]; NPPB=200 μM, CFZ=4 μM, 24 hours",30±7%
same,CFZ accumulation relative to uninhibited cells,"[5]; NPPB=200 μM, CFZ=6 μM, 24 hours",32±12%
same,CFZ accumulation relative to uninhibited cells,"[5]; NPPB=200 μM, CFZ=8 μM, 24 hours",37±7%
same,rate of drug accumulation,"[5]; mouse, 8 µM",~0.01 picomol/cell/day
same,change in CFZ accumulation in inhibited relative to uninhibited cells,"[5]; pre-incubated with various concentrations of NPPB, CFZ for 4 hours at varying concentrations",no significant change
